What was measured:
[1] = system: LL/2 lung cancer tumor endothelial cells; test: Lung LL2 ex vivo model of tumor angiogenesis; format: cell-based, mouse; details: for 48 hrs (morphology observations): LL/2 tumor endothelial cells; for Cell death: drug treatment for two days, ratio of red area to total endothelial cell area; for cytotoxicity at 20 µM / cytotoxicity at 40 µM: Mus musculus, Endothelial cell, 48 h, read-out: Cell death
Procedure, shortened: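 LL2 mouse tumor fragments (~0.075 mm³) embedded in Matrigel and cultured in endothelial growth medium at 37 °C until endothelial outgrowth (~4 days) before treatment. Cell death assessed e.g. 48 h after drug by fluorescein diacetate (live)/propidium iodide (dead) staining and red/green fluorescence imaging.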

[2] = system: CT26.CL25 colon cancer tumor endothelial cells; test: Colon CT26 ex vivo model of tumor angiogenesis; format: cell-based, mouse; details: for cytotoxicity at 20 µM / cytotoxicity at 10 µM / cytotoxicity at 40 µM: Mus musculus, Endothelial cell, 48 h, read-out: Cell death
Procedure, shortened: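 Pieces of CT26 mouse tumor (~0.075 mm³) embedded in Matrigel and cultured in endothelial growth medium at 37 °C, 5% CO2 until endothelial outgrowth appeared (about 7 days), then treated. About 48 h after drug addition, live/dead staining with fluorescein diacetate and propidium iodide was imaged in green and red channels.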

Compound	48 hrs (morphology observations) ([1]; 40 μm)	Cell death ([1]; 40 μm)	48 hrs (morphology observations after 48 hours) ([2]; Conc. 40 μm)	cytotoxicity at 40 µM [2]	also measured
CCCCCCCOc1ccc(S(=O)(=O)c2cnc3ccc([S+](C)[O-])cc3c2N2CCN(C)CC2)cc1 (stereo not drawn) [Compound 259]	–	–	–	–	48 hrs (morphology observations) ([1]; 20 μm): *** (more than 50% but less than 100% of endothelial cells vesicularize in cell shape); Cell death ([1]; 20 μm): 95%; 48 hrs (morphology observations after 48 hours) ([2]; Conc. 20 μm): *** (100% of endothelial cells vesicularize in cell shape); cytotoxicity at 20 µM [2]: 100%
COc1ccc(S(=O)(=O)c2cnc3ccc(OC(F)(F)F)cc3c2-n2cncn2)cc1 [Compound 86]	–	–	–	–	48 hrs (morphology observations) ([1]; 20 μm): *** (more than 50% but less than 100% of endothelial cells vesicularize in cell shape); cytotoxicity at 20 µM [1]: 100%; 48 hrs (morphology observations after 48 hours) ([2]; Conc. 10 μm): *** (100% of endothelial cells vesicularize in cell shape); cytotoxicity at 10 µM [2]: 100%
CCCCOc1ccc(S(=O)(=O)c2cnc3ccc(S(C)(=O)=O)cc3c2N2CCCN(C)CC2)cc1 [Compound 164]	**** (100% of endothelial cells vesicularize in cell shape and look flattened in morphology (indicating disintegration of the cell body))	95%	**** (100% of endothelial cells vesicularize in cell shape and look flattened in morphology (indicating disintegration of the cell body))	100%	–
COc1ccc(S(=O)(=O)c2cnc3ccc(CC#N)cc3c2-n2cncn2)cc1 [Compound 98]	–	–	–	–	Cell death ([1]; 20 μm): 10%; 48 hrs (morphology observations after 48 hours) ([2]; Conc. 10 μm): *** (100% of endothelial cells vesicularize in cell shape); cytotoxicity at 10 µM [2]: 50%
CCc1ccc(S(=O)(=O)c2cnc3ccc(CC#N)cc3c2N2CCC(N3CCCCC3)CC2)cc1 [Compound 55]	–	70%	0	50%	–
CCc1ccc(S(=O)(=O)c2cnc3ccc(OC(F)(F)F)cc3c2N2CCCN(CCN(CC)CC)CC2)cc1 [Compound 100]	**** (100% of endothelial cells vesicularize in cell shape and look flattened in morphology (indicating disintegration of the cell body))	–	**** (100% of endothelial cells vesicularize in cell shape and look flattened in morphology (indicating disintegration of the cell body))	100%	cytotoxicity at 40 µM [1]: 100%
CCCCOc1ccc(S(=O)(=O)c2cnc3ccc(SC)cc3c2N2CCC(N3CCCCC3)CC2)cc1 [Compound 159]	**** (100% of endothelial cells vesicularize in cell shape and look flattened in morphology (indicating disintegration of the cell body))	–	**** (100% of endothelial cells vesicularize in cell shape and look flattened in morphology (indicating disintegration of the cell body))	100%	cytotoxicity at 40 µM [1]: 100%
CCc1ccc(S(=O)(=O)c2cnc3ccc(OC(F)(F)F)cc3c2N(CC)CC)cc1 [Compound 81]	–	–	0	0%	cytotoxicity at 40 µM [1]: 0%
CCCCCCCOc1ccc(S(=O)(=O)c2cnc3ccc([S+](C)[O-])cc3c2N2CCC(N3CCN(C)CC3)CC2)cc1 (stereo not drawn) [Compound 253]	–	–	–	–	48 hrs (morphology observations) ([1]; 20 μm): **** (100% of endothelial cells vesicularize in cell shape and look flattened in morphology (indicating disintegration of the cell body)); Cell death ([1]; 20 μm): 100%; 48 hrs (morphology observations after 48 hours) ([2]; Conc. 10 μm): *** (100% of endothelial cells vesicularize in cell shape); cytotoxicity at 10 µM [2]: 80%
COc1ccc(S(=O)(=O)c2cnc3ccc(OC(F)(F)F)cc3c2N(CCO)CCO)cc1OC [Compound 72]	–	20%	0	0%	–
CCCCN(CCCC)c1c(S(=O)(=O)c2ccc(OC)cc2)cnc2ccc(C(=O)OCC)cc12 [Compound 155]	*** (more than 50% but less than 100% of endothelial cells vesicularize in cell shape)	–	*** (100% of endothelial cells vesicularize in cell shape)	20%	cytotoxicity at 40 µM [1]: 80%
COc1ccc(S(=O)(=O)c2cnc3ccc(OC(F)(F)F)cc3c2N2CCC(N3CCCCC3)CC2)cc1 [Compound 43]	*** (more than 50% but less than 100% of endothelial cells vesicularize in cell shape)	100%	*** (100% of endothelial cells vesicularize in cell shape)	90%	–
CCCCCCCOc1ccc(S(=O)(=O)c2cnc3ccc(SC)cc3c2N2CCCN(C)CC2)cc1 [Compound 218]	**** (100% of endothelial cells vesicularize in cell shape and look flattened in morphology (indicating disintegration of the cell body))	100%	*** (100% of endothelial cells vesicularize in cell shape)	90%	–
CCCCOc1ccc(S(=O)(=O)c2cnc3ccc(OC(F)(F)F)cc3c2-n2cncn2)cc1 [Compound 93]	–	–	–	–	48 hrs (morphology observations) ([1]; 20 μm): *** (more than 50% but less than 100% of endothelial cells vesicularize in cell shape); cytotoxicity at 20 µM [1]: 100%; 48 hrs (morphology observations after 48 hours) ([2]; Conc. 10 μm): *** (100% of endothelial cells vesicularize in cell shape); cytotoxicity at 10 µM [2]: 100%
CCOC(=O)c1ccc2ncc(S(=O)(=O)c3ccc(CC)cc3)c(-n3cncn3)c2c1 [Compound 80]	–	–	–	–	48 hrs (morphology observations) ([1]; 20 μm): *** (more than 50% but less than 100% of endothelial cells vesicularize in cell shape); cytotoxicity at 20 µM [1]: 100%; 48 hrs (morphology observations after 48 hours) ([2]; Conc. 10 μm): *** (100% of endothelial cells vesicularize in cell shape); cytotoxicity at 10 µM [2]: 100%
CCCCN(CCCC)c1c(S(=O)(=O)c2ccc(CC)cc2)cnc2ccc(OC(F)(F)F)cc12 [Compound 87]	–	–	0	0%	cytotoxicity at 40 µM [1]: 0%
CCc1ccc(S(=O)(=O)c2cnc3ccc(OC(F)(F)F)cc3c2-n2ccnc2)cc1 [Compound 118]	–	–	–	–	48 hrs (morphology observations) ([1]; 20 μm): *** (more than 50% but less than 100% of endothelial cells vesicularize in cell shape); cytotoxicity at 20 µM [1]: 100%; 48 hrs (morphology observations after 48 hours) ([2]; Conc. 20 μm): *** (100% of endothelial cells vesicularize in cell shape); cytotoxicity at 20 µM [2]: 100%
CCCCOc1ccc(S(=O)(=O)c2cnc3ccc([S+](C)[O-])cc3c2N2CCC(N3CCCC(O)C3)CC2)cc1 (stereo not drawn) [Compound 208]	–	50%	0	20%	–
CCCCCCCOc1ccc(S(=O)(=O)c2cnc3ccc([S+](C)[O-])cc3c2N2CCCN(CCN3CCCCC3)CC2)cc1 (stereo not drawn) [Compound 255]	–	–	–	–	48 hrs (morphology observations) ([1]; 20 μm): * (50% or less of cells vesicularize in cell shape); Cell death ([1]; 20 μm): 10%; 48 hrs (morphology observations after 48 hours) ([2]; Conc. 10 μm): 0; cytotoxicity at 10 µM [2]: 0%
CCCCCCCOc1ccc(S(=O)(=O)c2cnc3ccc([S+](C)[O-])cc3c2N2CCC(N3CCCCC3)CC2)cc1 (stereo not drawn) [Compound 221]	**** (100% of endothelial cells vesicularize in cell shape and look flattened in morphology (indicating disintegration of the cell body))	–	**** (100% of endothelial cells vesicularize in cell shape and look flattened in morphology (indicating disintegration of the cell body))	100%	cytotoxicity at 40 µM [1]: 100%
CCCCOc1ccc(S(=O)(=O)c2cnc3ccc(OC(F)(F)F)cc3c2NN2CCN(C)CC2)cc1 [Compound 92]	–	–	0	0%	Cell death ([1]; 20 μm): 10%
COc1ccc(S(=O)(=O)c2cnc3ccc(OC(F)(F)F)cc3c2N2CCC(N3CCCCC3)CC2)cc1OC [Compound 56]	* (50% or less of cells vesicularize in cell shape)	20%	0	30%	–
CCOC(=O)c1ccc2ncc(S(=O)(=O)c3ccc(CC)cc3)c(N3CCCN(C)CC3)c2c1 [Compound 63]	–	50%	*** (100% of endothelial cells vesicularize in cell shape)	70%	–
CCCCOc1ccc(S(=O)(=O)c2cnc3ccc(C(=O)OCC)cc3c2N2CCC(N3CCCN(C)CC3)CC2)cc1 [Compound 211]	**** (100% of endothelial cells vesicularize in cell shape and look flattened in morphology (indicating disintegration of the cell body))	–	**** (100% of endothelial cells vesicularize in cell shape and look flattened in morphology (indicating disintegration of the cell body))	100%	cytotoxicity at 40 µM [1]: 100%
COc1ccc(S(=O)(=O)c2cnc3ccc(OC(F)(F)F)cc3c2N2CCC(O)CC2)cc1OC [Compound 58]	0	–	* (50% or less of cells vesicularize in cell shape)	50%	cytotoxicity at 40 µM [1]: 50%
CCc1ccc(S(=O)(=O)c2cnc3ccc([N+](=O)[O-])cc3c2N2CCC(O)CC2)cc1 [Compound 75]	–	80%	0	0%	–
CCc1ccc(S(=O)(=O)c2cnc3ccc([N+](=O)[O-])cc3c2N2CCC(N3CCCCC3)CC2)cc1 [Compound 77]	–	80%	0	40%	–
CCc1ccc(S(=O)(=O)c2cnc3ccc([N+](=O)[O-])cc3c2N2CCCN(C)CC2)cc1 [Compound 76]	0	20%	** (more than 50% but less than 100% of endothelial cells vesicularize in cell shape)	100%	–
